Values joined by “and” are separate entries in the source; they are usually repeats but may differ in a detail not shown here. Equal values may be shown once. Read-outs that look alike come from different tables or passages of the source.
Key:
[1] = tested on: Enterococcus faecalis EFS.312, Daptomycin resistant mutant (EFA); format: cell-based; details: MHBc with 50 mg/L calcium, 18-20 hours at 37° C.
Summary of the method: (§1)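 MIC in μg/mL, taken as the lowest compound concentration producing no visible turbidity after 18-20 hours at 37° C with shaking at 200 rpm. Organisms were grown in calcium-supplemented (50 mg/L) Mueller Hinton broth at 5×10^5 bacteria per well.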

[2] = tested on: Enterococcus faecium EFM.384, Daptomycin resistant mutant (14-A); format: cell-based; details: MHBc with 50 mg/L calcium, 18-20 hours at 37° C.
Summary of the method: as §1

[3] = tested on: Staphylococcus aureus SAU.278, Daptomycin resistant mutant (D10); format: cell-based; details: MHBc with 50 mg/L calcium, 18-20 hours at 37° C.
Summary of the method: as §1

[4] = tested on: Staphylococcus aureus SAU.42 (ATCC 29213); format: cell-based
Summary of the method: as §1

[5] = tested on: C. difficile spores (ATCC #43596); experiment: Hamster C. difficile infection (CDAD) protection model; format: in vivo, Syrian golden hamsters; details: oral 0.5 mg/kg once daily for 5 days (MET 70 mg/kg three times daily for 5 days)
Method: Syrian golden hamsters were pretreated with 10 mg/kg clindamycin subcutaneously 24 hours before bacterial challenge. An inoculum of 20 C. difficile spores (ATCC #43596) in sterile saline was administered orally. Treatment was initiated 4 hours post-inoculation with dH2O, metronidazole (MET), vancomycin (VAN), or a compound of the present invention. Oral dosing regimens for VAN and compounds of Formula I were 0.5 mg/kg once daily for 5 days. MET was administered at 70 mg/kg three times daily for 5 days. CDAD was confirmed as the cause of death by observations at necropsy, including wet tail and/or macroscopic cecal alterations. The % protection provided by each therapy tested was calculated at 1 and 21 days post-dosing.

gram positive bacteria = experiment: Antimicrobial activity against a panel of organisms, summary statements; format: cell-based; details: statement in words
Method: (§2) Compounds according to Formula I were tested for antimicrobial activity against a panel of organisms. Aerobic organisms, Staphylococcus aureus, Enterococcus faecalis and E. faecium, were tested by broth microdilution according to Clinical and Laboratory Standards Institute (CLSI) document M7-A7 (Clinical and Laboratory Standards Institute. Methods for Dilution Antimicrobial Susceptibility Tests for Bacteria that Grow Aerobically; Approved Standard—Seventh Edition. CLSI document M7-A7 [ISBN 1-56238-587-9]. Clinical and Laboratory Standards Institute, 940 West Valley Road, Suite 1400, Wayne, Pa. 19087-1898 USA, 2006) with modifications as described below. Mueller Hinton Broth (MHBc) was supplemented with 50 mg/L calcium (equivalent to human physiological levels of calcium) and assay plates were incubated 18-20 hours at 37° C. with aeration (200 rpm).
(§3) In all cases the final concentration of dimethyl sulfoxide incubated with cells is less than or equal to 1%. For minimum inhibitory concentration (MIC) calculations, 2-fold dilutions of compounds were added to wells of a microtiter plate containing 5×10^5 bacteria in a final volume of 100 μL of media. Following incubation, (18-20 hours at 37° C. with aeration at 200 rpm) growth was confirmed visually by placing plates over a viewing apparatus (stand with a mirror underneath) and then the optical density (OD600) was measured using a SpectraMax 340PC^384 plate reader. Growth was defined as turbidity that could be detected with the naked eye or achieving minimum OD600of 0.1. MIC values (in μg/mL) were defined as the lowest concentration producing no visible turbidity.

[6] = tested on: Enterococcus faecalis EFS.201 (ATCC 49452); format: cell-based
Summary of the method: as §1

[7] = tested on: Enterococcus faecium EFM.14 (ATCC 6569); format: cell-based
Summary of the method: as §1

[8] = tested on: Staphylococcus aureus SAU.399 (ATCC 43300), Methicillin and Oxacillin Resistant; format: cell-based
Summary of the method: as §1

[9] = tested on: daptomycin resistant Staph. aureus (DRSA), daptomycin resistant E. faecium (DREfm) and daptomycin resistance E. faecalis (DREfs); experiment: Activity against daptomycin resistant bacteria, summary statement; format: cell-based; details: statement in words
Method: as §2, §3

[10] = MHBc with 50 mg/L calcium, 18-20 hours at 37° C.

SMILES: CCCCCC1CCC(C(=O)N[C@@H](Cc2c[nH]c3ccccc23)C(=O)N[C@H](CC(N)=O)C(=O)N[C@@H](CC(=O)O)C(=O)N[C@@H]2C(=O)NCC(=O)N[C@@H](CCCN)C(=O)N[C@@H](CC(=O)O)C(=O)N[C@H](C)C(=O)N[C@@H](CC(=O)O)C(=O)NCC(=O)N[C@H](CO)C(=O)N[C@@H]([C@H](C)CC(=O)O)C(=O)N[C@@H](CC(=O)c3ccccc3N)C(=O)O[C@@H]2C)CC1 (some centres unmarked) [Compound 16]
- Efs312 MIC [1]: 16 µg/mL and >32 µg/mL
- Efm384 MIC [2]: 32 µg/mL and 16 µg/mL
- Sa278 MIC [3]: 8 µg/mL
- Sa42 MIC ([4]; ATCC 29213): 0.5 µg/mL
- Mean % Protection 1 Day Post Dosing [5]: 100%
- Mean % Protection 21 Days Post Dosing [5]: 85%
- as active or more active than daptomycin (gram positive bacteria): as active or more active than daptomycin

SMILES: C[C@H](CC(=O)O)[C@@H]1NC(=O)[C@@H](CO)NC(=O)CNC(=O)[C@H](CC(=O)O)NC(=O)[C@@H](C)NC(=O)[C@H](CC(=O)O)NC(=O)[C@H](CCCN)NC(=O)CNC(=O)[C@@H](NC(=O)[C@H](CC(=O)O)NC(=O)[C@@H](CC(N)=O)NC(=O)[C@H](Cc2c[nH]c3ccccc23)NC(=O)C2CCCCCCCCCCC2)[C@@H](C)OC(=O)[C@H](CC(=O)c2ccccc2N)NC1=O [Compound 28, N-cyclododecanecarbonyl-L-tryptophyl-D-asparaginyl-L-α-aspartyl-L-threonylglycyl-L-ornithyl-L-α-aspartyl-D-alanyl-L-α-aspartylglycyl-D-seryl-(3R)-3-methyl-L-α-glutamyl-(αS)-α,2-diamino-γ-oxobenzenebutanoic acid (13→4)-lactone]
- Efs312 MIC [1]: >32 µg/mL
- Efm384 MIC [2]: 32 µg/mL
- Sa278 MIC [3]: 4 µg/mL and 8 µg/mL
- Mean % Protection 1 Day Post Dosing [5]: 100%
- Mean % Protection 21 Days Post Dosing [5]: 100%
- as active or more active than daptomycin (gram positive bacteria): as active or more active than daptomycin
- C. diff MIC90 (Clostridium difficile): 4 µg/mL

SMILES: CCCCCCCCCCOc1ccc(C(=O)N[C@@H](Cc2c[nH]c3ccccc23)C(=O)N[C@H](CC(N)=O)C(=O)N[C@@H](CC(=O)O)C(=O)N[C@@H]2C(=O)NCC(=O)N[C@@H](CCCN)C(=O)N[C@@H](CC(=O)O)C(=O)N[C@H](C)C(=O)N[C@@H](CC(=O)O)C(=O)NCC(=O)N[C@H](CO)C(=O)N[C@@H]([C@H](C)CC(=O)O)C(=O)N[C@@H](CC(=O)c3ccccc3N)C(=O)O[C@@H]2C)cc1 [Compound 38]
- Efs201 MIC [6, 10]: 0.5 µg/mL
- Efs312 MIC [1]: 0.5 µg/mL
- Efm14 MIC [7, 10]: 0.5 µg/mL
- Efm384 MIC [2]: 1 µg/mL
- Sa278 MIC [3]: 0.50 µg/mL
- Sa399 MIC [8, 10]: 0.5 µg/mL
- Sa42 MIC [4, 10]: 0.25 µg/mL
- as active or more active than daptomycin (gram positive bacteria): as active or more active than daptomycin
- more active against bacteria than daptomycin (gram positive bacteria): more effective than daptomycin
- useful against daptomycin resistant strains of bacteria [9]: useful against daptomycin resistant strains of bacteria
- C. diff MIC90 (Clostridium difficile): 1 µg/mL

SMILES: CCCCc1ccc(/C(C)=C/C(=O)N[C@@H](Cc2c[nH]c3ccccc23)C(=O)N[C@H](CC(N)=O)C(=O)N[C@@H](CC(=O)O)C(=O)N[C@@H]2C(=O)NCC(=O)N[C@@H](CCCN)C(=O)N[C@@H](CC(=O)O)C(=O)N[C@H](C)C(=O)N[C@@H](CC(=O)O)C(=O)NCC(=O)N[C@H](CO)C(=O)N[C@@H]([C@H](C)CC(=O)O)C(=O)N[C@@H](CC(=O)c3ccccc3N)C(=O)O[C@@H]2C)cc1 [Compound 48, N-{1-[(E)-3-(4-butylphenyl)but-2-enoyl]}-L-tryptophyl-D-asparaginyl-L-α-aspartyl-L-threonylglycyl-L-ornithyl-L-α-aspartyl-D-alanyl-L-α-aspartylglycyl-D-seryl-(3R)-3-methyl-L-α-glutamyl-(αS)-α,2-diamino-γ-oxobenzenebutanoic acid (13→4)-lactone]
- Efs201 MIC ([6]; ATCC 49452): 1 µg/mL
- Efs312 MIC [1]: >32 µg/mL and 32 µg/mL
- Efm14 MIC ([7]; ATCC 6569): 2 µg/mL
- Efm384 MIC [2]: 32 µg/mL
- Sa278 MIC [3]: 2 µg/mL and 4 µg/mL
- as active or more active than daptomycin (gram positive bacteria): as active or more active than daptomycin
- useful against daptomycin resistant strains of bacteria [9]: useful against daptomycin resistant strains of bacteria
- C. diff MIC90 (Clostridium difficile): 2 µg/mL

SMILES: CCCCCCc1ccc(/C(C)=C/C(=O)N[C@@H](Cc2c[nH]c3ccccc23)C(=O)N[C@H](CC(N)=O)C(=O)N[C@@H](CC(=O)O)C(=O)N[C@@H]2C(=O)NCC(=O)N[C@@H](CCCN)C(=O)N[C@@H](CC(=O)O)C(=O)N[C@H](C)C(=O)N[C@@H](CC(=O)O)C(=O)NCC(=O)N[C@H](CO)C(=O)N[C@@H]([C@H](C)CC(=O)O)C(=O)N[C@@H](CC(=O)c3ccccc3N)C(=O)O[C@@H]2C)cc1 [Compound 50, N-{1-[(E)-3-(4-hexylphenyl)but-2-enoyl]}-L-tryptophyl-D-asparaginyl-L-α-aspartyl-L-threonylglycyl-L-ornithyl-L-α-aspartyl-D-alanyl-L-α-aspartylglycyl-D-seryl-(3R)-3-methyl-L-α-glutamyl-(αS)-α,2-diamino-γ-oxobenzenebutanoic acid (13→4)-lactone]
- Efs201 MIC ([6]; ATCC 49452): 0.25 µg/mL
- Efs312 MIC [1]: 4 µg/mL
- Efm14 MIC ([7]; ATCC 6569): 1 µg/mL
- Efm384 MIC [2]: 4 µg/mL
- Sa278 MIC [3]: 1 µg/mL
- Sa399 MIC ([8]; ATCC 43300): 0.5 µg/mL
- as active or more active than daptomycin (gram positive bacteria): as active or more active than daptomycin
- more active against bacteria than daptomycin (gram positive bacteria): more effective than daptomycin
- useful against daptomycin resistant strains of bacteria [9]: useful against daptomycin resistant strains of bacteria
- C. diff MIC90 (Clostridium difficile): 0.5 µg/mL

SMILES: CCCCCOc1ccc(-c2ccc(C(=O)N[C@@H](Cc3c[nH]c4ccccc34)C(=O)N[C@H](CC(N)=O)C(=O)N[C@@H](CC(=O)O)C(=O)N[C@@H]3C(=O)NCC(=O)N[C@@H](CCCN)C(=O)N[C@@H](CC(=O)O)C(=O)N[C@H](C)C(=O)N[C@@H](CC(=O)O)C(=O)NCC(=O)N[C@H](CO)C(=O)N[C@@H]([C@H](C)CC(=O)O)C(=O)N[C@@H](CC(=O)c4ccccc4N)C(=O)O[C@@H]3C)cc2)cc1 [Compound 61, N-[4′-(pentyloxy)biphenyl-4-carbonyl]-L-tryptophyl-D-asparaginyl-L-α-aspartyl-L-threonylglycyl-L-ornithyl-L-α-aspartyl-D-alanyl-L-α-aspartylglycyl-D-seryl-(3R)-3-methyl-L-α-glutamyl-(αS)-α,2-diamino-γ-oxobenzenebutanoic acid (13→4)-lactone]
- Efs312 MIC [1]: 4 µg/mL
- Efm14 MIC ([7]; ATCC 6569): 0.5 µg/mL
- Efm384 MIC [2]: 2 µg/mL and 1 µg/mL
- as active or more active than daptomycin (gram positive bacteria): as active or more active than daptomycin
- more active against bacteria than daptomycin (gram positive bacteria): more effective than daptomycin
- useful against daptomycin resistant strains of bacteria [9]: useful against daptomycin resistant strains of bacteria
- C. diff MIC90 (Clostridium difficile): 2 µg/mL
